In brackets after ≈: the same amount, converted by molar mass.
Legend:
Assay type in all cases: cell-based
[1] = tested on: Aspergillus terreus AT4; assay: MIC, YAG medium; settings: 24 h at 35° C, MIC banded into grades; for MIC: Aspergillus terreus, read-out: MIC grade, A. terreus
In short: (§1)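 MICs (mg/L) derive from the lowest compound concentration suppressing spore outgrowth by >70% against a drug-free well, by OD 485 nm. Conditions: YAG medium, 1−2×10^4 cfu/mL, 24 h, 35° C, two-fold dilutions from 50 mg/L.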

[2] = tested on: Aspergillus fumigatus AF210; assay: MIC, YAG medium; settings: 24 h at 35° C, MIC banded into grades; for MIC: Aspergillus fumigatus, read-out: MIC grade, A. fumigatus 210
In short: as §1

[3] = tested on: Aspergillus niger; assay: MIC, YAG medium; settings: 24 h at 35° C, MIC banded into grades; for MIC: Aspergillus niger, read-out: MIC grade, A. niger
In short: as §1

[4] = tested on: Aspergillus fumigatus AF293; assay: MIC, YAG medium; settings: 24 h at 35° C, MIC banded into grades; for MIC: Aspergillus fumigatus, read-out: MIC grade, A. fumigatus
In short: as §1

[5] = tested on: Aspergillus terreus AT49; assay: MIC, YAG medium; settings: 24 h at 35° C, MIC banded into grades; for MIC: Aspergillus terreus, read-out: MIC grade, A. terreus 49
In short: as §1

[6] = tested on: Aspergillus flavus; assay: MIC, YAG medium; settings: 24 h at 35° C, MIC banded into grades; for MIC: Aspergillus flavus, 24 h, read-out: MIC grade, A. flavus
In short: as §1

[7] = tested on: Candida krusei; assay: MIC, RPMI medium; settings: 24-48 h at 35° C., >80% growth inhibition, banded into grades; for MIC: Pichia kudriavzevii
In short: (§2)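 Broth microdilution in RPMI with 2% glucose, 0.135 M MOPS pH 7.0; compounds as doubling dilutions, 50-0.05 mg/L, inoculum 1−2×10^4 cfu/mL. Incubated 24-48 h at 35° C; growth by OD 485 nm. MIC is lowest concentration giving >80% growth inhibition versus drug-free control.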

[8] = tested on: Aspergillus terreus AT4; assay: MIC, RPMI medium; settings: for MIC: Aspergillus terreus, AT4, MIC banded into grades, read-out: MIC grade, A. terreus
In short: as §2

[9] = tested on: Candida tropicalis; assay: MIC, RPMI medium; settings: 24-48 h at 35° C., >80% growth inhibition, banded into grades; for MIC: Candida tropicalis
In short: as §2

[10] = tested on: Candida albicans; assay: MIC, RPMI medium; settings: 24-48 h at 35° C., >80% growth inhibition, banded into grades; for MIC: Candida albicans
In short: as §2

[11] = tested on: Aspergillus fumigatus AF210; assay: MIC, RPMI medium; settings: for MIC: Aspergillus fumigatus, AF210, MIC banded into grades, read-out: MIC grade, A. fumigatus 210
In short: as §2

[12] = tested on: Candida parapsilosis; assay: MIC, RPMI medium; settings: 24-48 h at 35° C., >80% growth inhibition, banded into grades; for MIC: Lodderomyces parapsilosis
In short: as §2

[13] = tested on: Aspergillus niger; assay: MIC, RPMI medium; settings: MIC banded into grades; for MIC: Aspergillus niger, read-out: MIC grade, A. niger
In short: as §2

[14] = tested on: Aspergillus fumigatus AF293; assay: MIC, RPMI medium; settings: for MIC: Aspergillus fumigatus, AF293, MIC banded into grades, read-out: MIC grade, A. fumigatus
In short: as §2

[15] = tested on: Aspergillus terreus AT49; assay: MIC, RPMI medium; settings: for MIC: Aspergillus terreus, AT49, MIC banded into grades, read-out: MIC grade, A. terreus 49
In short: as §2

[16] = tested on: Candida glabrata; assay: MIC, RPMI medium; settings: 24-48 h at 35° C., >80% growth inhibition, banded into grades; for MIC: Nakaseomyces glabratus
In short: as §2

[17] = tested on: Aspergillus flavus; assay: MIC, RPMI medium; settings: MIC banded into grades; for MIC: Aspergillus flavus, read-out: MIC grade, A. flavus
In short: as §2

| SMILES | MIC [1] | MIC [2] | MIC [3] | MIC [4] | MIC [5] | MIC [6] | MIC [7] | MIC [8] | MIC [9] | MIC [10] | MIC [11] | MIC [12] | MIC [13] | MIC [14] | MIC [15] | MIC [16] | MIC [17] | other results |
| --- | --- | --- | --- | --- | --- | --- | --- | --- | --- | --- | --- | --- | --- | --- | --- | --- | --- | --- |
| COCCn1ccc(-c2cccc(Cl)c2)c1C(=O)C(=O)Nc1ccc(N2CCN(c3cc(C)cc(C)n3)CC2)cc1 [Example 70, 2-[3-(3-Chloro-phenyl)-1-(2-methoxy-ethyl)-1H-pyrrol-2-yl]-N-{4-[4-(4,6-dimethyl-pyridin-2-yl)-piperazin-1-yl]-phenyl}-2-oxo-acetamide] | < 1 µg/mL | < 1 µg/mL | > 10 µg/mL | < 1 µg/mL | < 1 µg/mL | 1 to 10 µg/mL (≈ 1.75 to 17.5 µM) | 1 to 10 µg/mL (≈ 1.75 to 17.5 µM) | 1 to 10 µg/mL (≈ 1.75 to 17.5 µM) | 1 to 10 µg/mL (≈ 1.75 to 17.5 µM) | 1 to 10 µg/mL (≈ 1.75 to 17.5 µM) | 1 to 10 µg/mL (≈ 1.75 to 17.5 µM) | < 1 µg/mL | > 10 µg/mL | 1 to 10 µg/mL (≈ 1.75 to 17.5 µM) | 1 to 10 µg/mL (≈ 1.75 to 17.5 µM) | < 1 µg/mL | 1 to 10 µg/mL (≈ 1.75 to 17.5 µM) | – |
| CCOC(=O)Cn1c(C)cc(-c2ccccc2)c1C(=O)C(=O)Nc1ccc(N2CCN(c3cc(C)cc(C)n3)CC2)cc1 [Example 69, (2-{4-[4-(4,6-Dimethyl-pyridin-2-yl)-piperazin-1-yl]-phenylaminooxalyl}-5-methyl-3-phenyl-pyrrol-1-yl)-acetic acid ethyl ester] | – | – | – | – | – | – | – | – | – | – | – | – | – | – | – | – | – | MIC grade, A. terreus [1]: 3 (A grade of 3 represents an MIC of less than 1 mg/L); MIC grade, A. fumigatus 210 [2]: 3 (A grade of 3 represents an MIC of less than 1 mg/L); MIC grade, A. niger [3]: 3 (A grade of 3 represents an MIC of less than 1 mg/L); MIC grade, A. fumigatus [4]: 3 (A grade of 3 represents an MIC of less than 1 mg/L); MIC grade, A. terreus 49 [5]: 3 (A grade of 3 represents an MIC of less than 1 mg/L); MIC grade, A. flavus [6]: 2 (A grade of 2 represents an MIC of from 1 to 10 mg/L); Candida MIC, C. krusei [7]: 2 (A grade of 2 represents an MIC of from 1 to 10 mg/L); MIC grade, A. terreus ([8]; MIC banded into grades): 2 (A grade of 2 represents an MIC of from 1 to 10 mg/L); Candida MIC, C. tropicalis [9]: 3 (A grade of 3 represents an MIC of less than 1 mg/L); Candida MIC, C. albicans [10]: 2 (A grade of 2 represents an MIC of from 1 to 10 mg/L); MIC grade, A. fumigatus 210 ([11]; MIC banded into grades): 3 (A grade of 3 represents an MIC of less than 1 mg/L); Candida MIC, C. parapsilosis [12]: 3 (A grade of 3 represents an MIC of less than 1 mg/L); MIC grade, A. niger [13]: 3 (A grade of 3 represents an MIC of less than 1 mg/L); MIC grade, A. fumigatus ([14]; MIC banded into grades): 3 (A grade of 3 represents an MIC of less than 1 mg/L); MIC grade, A. terreus 49 ([15]; MIC banded into grades): 2 (A grade of 2 represents an MIC of from 1 to 10 mg/L); Candida MIC, C. glabrata [16]: 3 (A grade of 3 represents an MIC of less than 1 mg/L); MIC grade, A. flavus [17]: 1 (a grade of 1 represents an MIC of greater than 10 mg/L) |
| COCn1ccc(-c2ccccc2)c1C(=O)C(=O)Nc1ccc(N2CCN(c3cc(C)cc(C)n3)CC2)cc1 [Example 63, N-{4-[4-(4,6-Dimethyl-pyridin-2-yl)-piperazin-1-yl]-phenyl}-2-(1-methoxymethyl-3-phenyl-1H-pyrrol-2-yl)-2-oxo-acetamide] | < 1 µg/mL | < 1 µg/mL | 1 to 10 µg/mL (≈ 1.91 to 19.1 µM) | < 1 µg/mL | < 1 µg/mL | < 1 µg/mL | < 1 µg/mL | < 1 µg/mL | < 1 µg/mL | 1 to 10 µg/mL (≈ 1.91 to 19.1 µM) | < 1 µg/mL | < 1 µg/mL | < 1 µg/mL | < 1 µg/mL | < 1 µg/mL | < 1 µg/mL | < 1 µg/mL | – |
| COCCn1ccc(-c2ccc(Cl)cc2)c1C(=O)C(=O)Nc1ccc(N2CCN(c3cc(C)cc(C)n3)CC2)cc1 [Example 59, 2-[3-(4-Chloro-phenyl)-1-(2-methoxy-ethyl)-1H-pyrrol-2-yl]-N-{4-[4-(4,6-dimethyl-pyridin-2-yl)-piperazin-1-yl]-phenyl}-2-oxo-acetamide] | 1 to 10 µg/mL (≈ 1.75 to 17.5 µM) | 1 to 10 µg/mL (≈ 1.75 to 17.5 µM) | > 10 µg/mL | 1 to 10 µg/mL (≈ 1.75 to 17.5 µM) | 1 to 10 µg/mL (≈ 1.75 to 17.5 µM) | > 10 µg/mL | 1 to 10 µg/mL (≈ 1.75 to 17.5 µM) | > 10 µg/mL | < 1 µg/mL | < 1 µg/mL | 1 to 10 µg/mL (≈ 1.75 to 17.5 µM) | < 1 µg/mL | > 10 µg/mL | 1 to 10 µg/mL (≈ 1.75 to 17.5 µM) | > 10 µg/mL | < 1 µg/mL | > 10 µg/mL | – |
| COCCn1ccc(-c2ccccc2Cl)c1C(=O)C(=O)Nc1ccc(N2CCN(c3cc(C)cc(C)n3)CC2)cc1 [Example 57, 2-[3-(2-Chloro-phenyl)-1-(2-methoxy-ethyl)-1H-pyrrol-2-yl]-N-{4-[4-(4,6-dimethyl-pyridin-2-yl)-piperazin-1-yl]-phenyl}-2-oxo-acetamide] | 1 to 10 µg/mL (≈ 1.75 to 17.5 µM) | < 1 µg/mL | 1 to 10 µg/mL (≈ 1.75 to 17.5 µM) | < 1 µg/mL | < 1 µg/mL | 1 to 10 µg/mL (≈ 1.75 to 17.5 µM) | < 1 µg/mL | 1 to 10 µg/mL (≈ 1.75 to 17.5 µM) | 1 to 10 µg/mL (≈ 1.75 to 17.5 µM) | 1 to 10 µg/mL (≈ 1.75 to 17.5 µM) | 1 to 10 µg/mL (≈ 1.75 to 17.5 µM) | 1 to 10 µg/mL (≈ 1.75 to 17.5 µM) | 1 to 10 µg/mL (≈ 1.75 to 17.5 µM) | 1 to 10 µg/mL (≈ 1.75 to 17.5 µM) | 1 to 10 µg/mL (≈ 1.75 to 17.5 µM) | < 1 µg/mL | > 10 µg/mL | – |
| COCCn1c(C)cc(-c2ccccc2)c1C(=O)C(=O)Nc1ccc(N2CCN(c3cc(C)cc(C)n3)CC2)cc1 [Example 9, N-{4-[4-(4,6-Dimethyl-pyridin-2-yl)-piperazin-1-yl]-phenyl}-2-[1-(2-methoxy-ethyl)-5-methyl-3-phenyl-1H-pyrrol-2-yl]-2-oxo-acetamide] | < 1 µg/mL | < 1 µg/mL | < 1 µg/mL | < 1 µg/mL | < 1 µg/mL | < 1 µg/mL | < 1 µg/mL | 1 to 10 µg/mL (≈ 1.81 to 18.1 µM) | 1 to 10 µg/mL (≈ 1.81 to 18.1 µM) | 1 to 10 µg/mL (≈ 1.81 to 18.1 µM) | < 1 µg/mL | < 1 µg/mL | < 1 µg/mL | < 1 µg/mL | 1 to 10 µg/mL (≈ 1.81 to 18.1 µM) | < 1 µg/mL | > 10 µg/mL | – |

— US8993574B2, “Pyrrole antifungal agents” (F2G Ltd, priority 2008, dated 2015)
